# According to patent US11292783B2, “Substituted 1,2,3,4-tetrahydroisoquinolines as kappa opioid antagonists” (Research Triangle Institute, priority 2016, dated 2022):
# Read-outs that look alike come from different tables or passages of the source.
# Experiments:
# Format in all cases: biochemical
# μ opioid receptor = target: T1, μ opioid receptor (Homo sapiens, UniProt P35372); assay: Inhibition of DAMGO-stimulated [35S]GTPγS binding
# T1 construct: expressed in transfected cells
# δ opioid receptor = target: T2, δ opioid receptor (Homo sapiens, UniProt P41143); assay: Inhibition of DPDPE-stimulated [35S]GTPγS binding
# T2 construct: expressed in transfected cells
# κ opioid receptor = target: T3, κ opioid receptor (Homo sapiens, UniProt P41145); assay: Inhibition of U69,593-stimulated [35S]GTPγS binding; conditions: for δ/κ (selectivity for κ relative to δ): ratio of Ke values δ/κ; for δ/κ (selectivity for κ relative to δ) / μ/κ (selectivity for κ relative to μ): fold; for μ/κ (selectivity for κ relative to μ): ratio of Ke values μ/κ
# T3 construct: expressed in transfected cells
# [1] = cloned human μ receptor, agonist DAMGO, [35S]GTPγS binding, read-out: μ, DAMGO Ke
# [2] = cloned human δ receptor, agonist DPDPE, [35S]GTPγS binding, read-out: δ, DPDPE Ke
# [3] = cloned human κ receptor, agonist U69,593, [35S]GTPγS binding, read-out: κ, U69,593 Ke
# T3 sequence (P41145 whole entry): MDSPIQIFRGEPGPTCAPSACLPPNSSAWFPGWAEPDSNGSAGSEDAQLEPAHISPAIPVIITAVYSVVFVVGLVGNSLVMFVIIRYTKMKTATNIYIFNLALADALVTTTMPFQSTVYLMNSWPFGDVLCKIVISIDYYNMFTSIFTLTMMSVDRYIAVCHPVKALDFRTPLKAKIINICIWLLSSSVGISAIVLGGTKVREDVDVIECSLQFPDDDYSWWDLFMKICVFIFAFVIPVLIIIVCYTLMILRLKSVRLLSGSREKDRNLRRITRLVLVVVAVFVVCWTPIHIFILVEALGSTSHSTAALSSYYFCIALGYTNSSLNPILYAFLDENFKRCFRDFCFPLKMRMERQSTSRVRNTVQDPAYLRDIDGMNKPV
# T2 sequence (P41143 whole entry): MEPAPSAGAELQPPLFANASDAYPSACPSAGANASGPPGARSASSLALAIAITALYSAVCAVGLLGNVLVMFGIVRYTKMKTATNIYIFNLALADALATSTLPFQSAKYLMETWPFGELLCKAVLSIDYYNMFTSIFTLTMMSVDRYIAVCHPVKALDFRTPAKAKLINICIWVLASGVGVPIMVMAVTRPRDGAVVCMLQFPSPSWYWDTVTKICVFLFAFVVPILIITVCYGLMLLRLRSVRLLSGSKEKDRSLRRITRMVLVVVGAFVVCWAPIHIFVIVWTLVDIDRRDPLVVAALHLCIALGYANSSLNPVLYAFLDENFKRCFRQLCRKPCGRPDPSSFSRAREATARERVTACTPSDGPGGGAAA
# T1 sequence (P35372 whole entry): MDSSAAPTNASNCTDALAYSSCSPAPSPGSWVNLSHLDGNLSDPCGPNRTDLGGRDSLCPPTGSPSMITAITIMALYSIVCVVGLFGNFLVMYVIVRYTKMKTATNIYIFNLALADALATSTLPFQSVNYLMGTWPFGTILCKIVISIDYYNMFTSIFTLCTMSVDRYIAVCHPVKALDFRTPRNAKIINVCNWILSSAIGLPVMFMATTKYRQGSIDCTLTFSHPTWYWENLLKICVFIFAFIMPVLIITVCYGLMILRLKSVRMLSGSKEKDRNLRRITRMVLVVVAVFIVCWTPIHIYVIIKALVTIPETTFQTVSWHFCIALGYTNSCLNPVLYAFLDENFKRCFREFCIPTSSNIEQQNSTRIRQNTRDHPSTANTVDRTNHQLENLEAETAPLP
Kb (μ opioid receptor; [1]) [nM],Kb (κ opioid receptor; [3]) [nM],δ/κ (selectivity for κ relative to δ) (κ opioid receptor),μ/κ (selectivity for κ relative to μ) (κ opioid receptor),SMILES,Kb (δ opioid receptor; [2]) [nM],further results
–,–,–,–,"CC(C)[C@@H](CN1CCCCC1)NC(=O)[C@H]1Cc2ccc(O)cc2CN1 [Compound 3, (3R)-7-Hydroxy-N-[(1S)-2-methyl-1-(piperidin-1-ylmethyl)propyl]-1,2,3,4-tetrahydroisoquinoline-3-carboxamide]",–,Kb (δ opioid receptor): > 3000 nM
344 ± 100,–,–,–,"CC(C)[C@@H](CC1CCCC1)NC(=O)[C@H]1Cc2ccc(O)cc2CN1 [Compound 40, (3R)—N-[(1R)-1-(Cyclopentylmethyl)-2-methylpropyl]-7-hydroxy-1,2,3,4-tetrahydroisoquinoline-3-carboxamide]",1570 ± 380,–
647 ± 150,12.7 ± 3.1,>236,51,"CC(C)[C@@H](CN1CCC(C#N)CC1)NC(=O)[C@H]1Cc2ccc(O)cc2CN1 [Compound 39, (3R)—N-{(1S)-1-[(4-Cyanopiperidin-1-yl)methyl]-2-methylprolyl}-7-hydroxy-1,2,3,4-tetrahydroisoquinoline-3-carboxamide]",–,–
–,–,–,–,"O=C(NCCc1ccccc1)[C@H]1Cc2ccc(O)cc2CN1 [Compound 56, (3R)-7-Hydroxy-N-(2-phenylethyl)-1,2,3,4-tetrahydroisoquinoline-3-carboxamide]",> 3000,Kb (μ opioid receptor): 277 ± 77 nM
318 ± 8.4,8.08 ± 1.2,>371,39,"CC(C)[C@@H](CN1CCC(N(C)C)CC1)NC(=O)[C@H]1Cc2ccc(O)cc2CN1 [Compound 58, (3R)—N-[(1S)-1-{[4-(Dimethylamino)piperidin-1-yl]methyl}-2-methylpropyl]-7-hydroxy-1,2,3,4-tetrahydroisoquinoline-3-carboxamide]",–,–
–,396 ± 140,–,–,"CC(C)[C@@H](CN1CCOCC1)NC(=O)[C@H]1Cc2ccc(O)cc2CN1 [Compound 5, (3R)-7-Hydroxy-N-[(1S)-2-methyl-1-(morpholin-4-ylmethyl)propyl]-1,2,3,4-tetrahydroisoquinoline-3-carboxamide]",–,–
–,137 ± 24,–,–,"CC(C)CN(CC(C)C)C[C@@H](NC(=O)[C@H]1Cc2ccc(O)cc2CN1)C(C)C [Compound 10, (3R)—N-{(1S)-1-{[Bis(2-methylpropyl)amino]methyl}-2-methylpropyl]-7-hydroxy-1,2,3,4-tetrahydroisoquinoline-3-carboxamide]",–,–
44.9 ± 11,15.1 ± 4.2,199,3,"CC(C)[C@@H](CN1CCCCC1C)NC(=O)[C@H]1Cc2ccc(O)cc2CN1 (stereo partly drawn) [Compound 12, (3R)-7-Hydroxy-N-{(1S)-2-methyl-1-[(2-methylpiperidin-1-yl)methyl]propyl}-1,2,3,4-tetrahydroisoquinoline-3-carboxamide]",–,–
915 ± 303,98.8 ± 28,>333,9,"CC(C)[C@@H](CN1CCN(C)CC1)NC(=O)[C@H]1Cc2ccc(O)cc2CN1 [Compound 19, (3R)-7-Hydroxy-N-{(1S)-2-methyl-1-[(4-methylpiperizin-1-yl)methyl]propyl}-1,2,3,4-tetrahydroisoquinoline-3-carboxamide]",–,–
129 ± 26,3.22 ± 0.78,932,43,CC(C)[C@@H](CN1CCC(C(N)=O)CC1)NC(=O)[C@H]1Cc2ccc(O)cc2CN1 [Compound 22],–,–
198 ± 48,6.53 ± 1.8,>459,30,"COC1CCN(C[C@@H](NC(=O)[C@H]2Cc3ccc(O)cc3CN2)C(C)C)CC1 [Compound 13, (3R)-7-Hydroxy-N-{(1S)-2-methyl-1-[(4-methoxypiperidin-1-yl)methyl]propyl}-1,2,3,4-tetrahydroisoquinoline-3-carboxamide]",–,–
142,2.09 ± 0.42,405,68,"CC(C)[C@@H](CN1CCC(C)(C)CC1)NC(=O)[C@H]1Cc2ccc(O)cc2CN1 [Compound 9, (3R)—N-{(1S)-1-[(4,4-Dimethylpiperidin-1-yl)methyl]-2-methylpropyl}-7-hydroxy-1,2,3,4-tetrahydroisoquinoline-3-carboxamide]",847,–
74.8 ± 23,2.48 ± 0.7,1004,30,"CCC1CCN(C[C@@H](NC(=O)[C@H]2Cc3ccc(O)cc3CN2)C(C)C)CC1 [Compound 24, (3R)—N-{(1S)-1-[(4-Ethylpiperidin-1-yl)methyl]-2-methylpropyl}-7-hydroxy-1,2,3,4-tetrahydroisoquinoline-3-carboxamide]",2490 ± 620,–
604 ± 83,11.8 ± 3,>254,51,"CC(C)[C@@H](CN1CCC(F)(F)CC1)NC(=O)[C@H]1Cc2ccc(O)cc2CN1 [Compound 54, (3R)—N-{[(1S)-1-[4,4-Difluoropiperidin-1-yl]methyl]-2-methylpropyl}-7-hydroxy-1,2,3,4-tetrahydroisoquinoline-3-carboxamide]",–,–
67.9 ± 12,4.69 ± 0.29,>640,14,"CC(C)[C@@H](CN1CCC(C(F)(F)F)CC1)NC(=O)[C@H]1Cc2ccc(O)cc2CN1 [Compound 14, (3R)-7-Hydroxy-N-[(1S)-2-methyl-1-{[4-(trifluoromethyl)piperidin-1-yl]methyl}propyl]-1,2,3,4-tetrahydroisoquinoline-3-carboxamide]",–,–

SMILES,Kb (μ opioid receptor; [1]) [nM],Kb (κ opioid receptor; [3]) [nM],δ/κ (selectivity for κ relative to δ) (κ opioid receptor),μ/κ (selectivity for κ relative to μ) (κ opioid receptor),Kb (δ opioid receptor; [2]) [nM],further results
"CC1CCC(C[C@@H](NC(=O)[C@H]2Cc3ccc(O)cc3CN2)C(C)C)CC1 (stereo partly drawn) [Compound 66, (3R)-7-Hydroxy-N-{(1R)-2-methyl-1-[(4-methylcyclohexyl)methyl]propyl}-1,2,3,4-tetrahydroisoquinoline-3-carboxamide]",221 ± 41,–,–,–,–,–
"CC(C)[C@@H](CN1CCC(C(F)F)CC1)NC(=O)[C@H]1Cc2ccc(O)cc2CN1 [Compound 59, (3R)—N-[(1S)-1-{[4-(Difluoromethyl)piperidin-1-yl]methyl}-2-methylpropyl]-7-hydroxy-1,2,3,4-tetrahydroisoquinoline-3-carboxamide]",70.9 ± 9.4,3.45 ± 1.2,–,–,–,–
"CC1CCN(C[C@H](C(C)C)N(C)C[C@H]2Cc3ccc(O)cc3CN2)CC1 [Compound 53, (3R)-3-[(Methyl{(1S)-2-methyl-1-[(4-methylpiperidin-1-yl)methyl]propyl}amino)methyl]-1,2,3,4-tetrahydroisoquinolin-7-ol]",–,18.4 ± 2,>163,35,> 3000,Kb (μ opioid receptor): 647 ± 150 nM
"CC(C)[C@@H](CO)NC(=O)[C@H]1Cc2ccc(O)cc2CN1 [Compound 4, (3R)-7-Hydroxy-N-[(1S)-1-(hydroxymethyl)-2-methylpropyl]-1,2,3,4-tetrahydroisoquinoline-3-carboxamide]",–,–,>76,>76,–,"Kb (κ opioid receptor; κ, U69,593 Ke, cloned human κ receptor, agonist U69,593, [35S]GTPγS binding): 39.1 ± 3.8 nM; Kb (μ opioid receptor): > 3000 nM; Kb (δ opioid receptor): > 3000 nM"
"CCN(CC)C[C@@H](NC(=O)[C@H]1Cc2ccc(O)cc2CN1)C(C)C [Compound 11, (3R)—N-{(1S)-1-[(4,4-Diethylamino)methyl]-2-methylpropyl]-7-hydroxy-1,2,3,4-tetrahydroisoquinoline-3-carboxamide]",–,–,>72,16.5,>3000,"κ, U69,593 Ke (κ opioid receptor; cloned human κ receptor, agonist U69,593, [35S]GTPγS binding): 41.8 ± 12 nM; μ, DAMGO Ke (μ opioid receptor; cloned human μ receptor, agonist DAMGO, [35S]GTPγS binding): 690 ± 110 nM"
"CC1CCN(C[C@H](C(C)C)N(C)C(=O)[C@H]2Cc3ccc(O)cc3CN2)CC1 [Compound 30, (3R)-7-Hydroxy-N-methyl-N-{(1S)-2-methyl-1-[(4-methylpiperidin-1-yl)methyl]propyl}-1,2,3,4-tetrahydroisoquinoline-3-carboxamide]",–,88.4 ± 17,34,4.6,> 3000,Kb (μ opioid receptor): 406 ± 86 nM
